For assay [1], the target named is T1, human alpha2C receptors (Homo sapiens, UniProt P18825).
T1 construct: host or cells: CHO cells, cotransfected with expression vector pCEP-Galpha16
T1 sequence (P18825 1-462): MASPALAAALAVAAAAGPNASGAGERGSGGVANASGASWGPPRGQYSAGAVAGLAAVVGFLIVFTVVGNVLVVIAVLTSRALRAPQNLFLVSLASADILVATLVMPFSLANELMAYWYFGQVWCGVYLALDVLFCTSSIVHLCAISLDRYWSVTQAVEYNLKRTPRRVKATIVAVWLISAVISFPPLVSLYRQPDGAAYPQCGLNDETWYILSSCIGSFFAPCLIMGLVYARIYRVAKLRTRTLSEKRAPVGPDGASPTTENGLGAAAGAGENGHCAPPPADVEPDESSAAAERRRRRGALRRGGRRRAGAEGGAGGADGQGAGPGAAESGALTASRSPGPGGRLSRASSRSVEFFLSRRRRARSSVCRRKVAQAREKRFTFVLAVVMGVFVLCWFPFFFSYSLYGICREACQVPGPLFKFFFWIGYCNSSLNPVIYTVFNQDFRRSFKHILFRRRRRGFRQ
The experiment in a line: Determination of alpha2C antagonistic activity in vitro (intracellular calcium, FLIPR Calcium 3 Assay, FLEXstation). The format is cell-based. The settings on record: CHO cells stably transfected with human alpha2C receptor and Gα16; stimulated with 100 nM adrenaline or 200 nM noradrenaline. As for the experimental part:
(§1) Chinese hamster ovary (CHO) cells stably transfected with human alpha2A and alpha2C or rodent alpha2D receptors (University of Turku, Finland) were cotransfected with the expression vector pCEP-Gα16 (Molecular Devices, CA, USA) and CHO cells stably transfected with human adrenergic alpha2B receptors and mitochondrially targeted aequorin (Euroscreen, Belgium) were used in this experiment. The cells were maintained at 37° C. in a 5% CO2/95% air atmosphere. The cells were cultured in HAM F-12 medium supplemented with 10% FCS, 25 mM HEPES, 100 IU/ml penicillin, 100 μg/ml streptomycin, 500 μg/ml geneticin and 240 μg/ml hygromycin B. The cells were subcultured twice weekly with 0.25% trypsin and 1 mM EDTA. The subculture ratio was 1:5-1:20. The growth medium was changed every 2 or 3 days. All cell culture reagents were from Gibco. The day before the experiment the cells were plated into black-walled, clear bottom 96-well plates at a density of 30,000-45,000 cells/well.
(§2) The growth medium was removed and the cells were incubated with the test compounds and the FLIPR Calcium 3 Assay reagent (Molecular Devices, CA, USA) for 1 h at 37° C. in dark. The test compounds (concentrations in cells 100 pM-10 μM) were dissolved in Probenecid-Ringer consisting of 150 mM NaCl, 3 mM KCl, 1.2 mM MgCl2, 1 mM CaCl2, 5 mM glucose, 20 mM HEPES and 2.5 mM probenecid (pH 7.4 adjusted with 1.0 M NaOH). The osmolarity was adjusted to 322 milliosmoles with Osmostat® OM-6020 osmometer (DIC Kyoto Daiichi Kagagu Co. Ltd, Japan). […] All experiments were performed at 37° C. The test compounds dissolved in Probenecid-Ringer were applied by FLEX station at 17 s time point. […] In order to determine antagonism, the cells were stimulated either with 100 nM adrenaline or 200 nM noradrenaline and the test compounds were added to the cells at least 5 min before the experiment. Typically, there were four replicates at each concentration and seven different dose levels. For example, if the number of plates from which results were obtained was three, 84 (4*7*3) wells were thus measured to construct dose-response relationship. The samples were excited at 485 nm and emission was detected at 525 nm with a 515 nm cut-off filter. Reading time was 60 s per well and the photomultiplier sensitivity value was set to 15. The minimum fluorescence value subtracted from the maximum value for each well was used in the calculations. SOFTmax PRO version 3.2 software was used for analyzing the results. Fitting of the antagonist dose-response results was performed with the free Hill equation and the IC50 values were fitted with Michaelis-Menten equation in Sigma Plot 8.0.

For assay [2], the target named is T2, human alpha2A receptors (Homo sapiens, UniProt P08913).
T2 construct: host or cells: CHO cells, cotransfected with expression vector pCEP-Galpha16
T2 sequence (P08913 1-465): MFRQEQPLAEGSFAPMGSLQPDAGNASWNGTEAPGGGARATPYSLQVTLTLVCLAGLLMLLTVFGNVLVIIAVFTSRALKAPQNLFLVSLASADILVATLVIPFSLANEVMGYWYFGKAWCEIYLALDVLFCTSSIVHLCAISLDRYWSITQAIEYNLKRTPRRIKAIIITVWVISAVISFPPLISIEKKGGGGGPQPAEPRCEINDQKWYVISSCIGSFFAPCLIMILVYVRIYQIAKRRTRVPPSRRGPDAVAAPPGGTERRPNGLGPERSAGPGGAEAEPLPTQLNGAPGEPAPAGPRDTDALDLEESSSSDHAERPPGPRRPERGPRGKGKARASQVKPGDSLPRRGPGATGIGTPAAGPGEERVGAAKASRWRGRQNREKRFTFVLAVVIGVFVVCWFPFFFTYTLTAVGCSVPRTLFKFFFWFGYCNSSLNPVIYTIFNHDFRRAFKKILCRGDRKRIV
Kind of assay: Determination of alpha2A antagonistic activity in vitro (intracellular calcium, FLIPR Calcium 3 Assay, FLEXstation). The assay is classed as cell-based. The settings on record: CHO cells stably transfected with human alpha2A receptor and Gα16; stimulated with 100 nM adrenaline or 200 nM noradrenaline. As for the experimental part: as §1, §2

These results are taken from US8809536B2, “2,3-dihydrobenzo[1,4] dioxin-2-ylmethyl derivatives as alpha2C antagonists for use in the treatment of peripheric and central nervous system diseases” (Orion Corporation, priority 2007, dated 2014).

As to `Fc1ccc(C2CCCN(C[C@H]3COc4ccccc4O3)C2)cc1` (stereo in doubt) [Example 18, (R*)-1-[(S)-1-(2,3-Dihydrobenzo[1,4]dioxin-2-yl)methyl]-3-(4-fluorophenyl)piperidine], the IC50 in assay [1] was 69.5 nM; in assay [2], > 10000 nM.
On to `OCc1cccc(C2CCCN(C[C@H]3COc4ccccc4O3)C2)c1` (stereo in doubt) [Example 29, (3-{(R*)-1-[(S)-1-(2,3-Dihydrobenzo[1,4]dioxin-2-yl)methyl]piperidin-3-yl}phenyl)methanol], for which the IC50 in assay [1] turned out to be 5.4 nM; in assay [2] it was 4360 nM.
With `c1ccc(C2CCCN(CC3COc4ccccc4O3)C2)cc1` (stereo not drawn) [Example 2, 1-(2,3-Dihydrobenzo[1,4]dioxin-2-ylmethyl)-3-phenylpiperidine], the IC50 was found to be 11.4 nM in assay [1] and 3780 nM in assay [2].
For `Oc1ccccc1C1CCCN(CC2COc3ccccc3O2)C1` (stereo not drawn) [Example 12, 2-[1-(2,3-Dihydrobenzo[1,4]dioxin-2-ylmethyl)piperidin-3-yl]phenol], in that order: 19.6 nM and 374 nM.
On to `c1ccc2c(c1)OCC(CN1CCC3CCCCC3C1)O2` (stereo not drawn) [Example 48, 2-(2,3-Dihydrobenzo[1,4]dioxin-2-ylmethyl)decahydroisoquinoline], for which the IC50 in assay [1] turned out to be 7.4 nM; in assay [2], 1470 nM.
Taken in the same sequence, the figures for `COC(C)(C)C1(C)CCCN(CC2COc3ccccc3O2)C1` (stereo not drawn) [Example 58, 1-(2,3-Dihydrobenzo[1,4]dioxin-2-ylmethyl)-3-(1-methoxy-1-methylethyl)-3-methylpiperidine] were 9.5 nM and 776 nM.
As to `CC1(COS(C)(=O)=O)CCCN(CC2COc3ccccc3O2)C1` (stereo not drawn) [Example 61, Methanesulfonic acid 1-(2,3-dihydrobenzo[1,4]dioxin-2-ylmethyl)-3-methylpiperidin-3-ylmethyl ester], the IC50 was 2.4 nM in assay [1] and 2870 nM in assay [2].
As for `CCC1(COC)CCCN(CC2COc3ccccc3O2)C1` (stereo not drawn) [Example 63, 1-(2,3-Dihydrobenzo[1,4]dioxin-2-ylmethyl)-3-ethyl-3-methoxymethylpiperidine], the IC50 came out at 0.8 nM in assay [1] and 2730 nM in assay [2].
With `C=CCOCC1(C)CCCN(CC2COc3ccccc3O2)C1` (stereo not drawn) [Example 69, 3-Allyloxymethyl-1-(2,3-dihydrobenzo[1,4]dioxin-2-ylmethyl)-3-methyl-piperidine], the IC50 in assay [1] was 1.7 nM; in assay [2], 1290 nM.
Consider `C=CCC1(CO)CCCN(CC2COc3ccccc3O2)C1` (stereo not drawn) [Example 71, [3-Allyl-1-(2,3-dihydrobenzo[1,4]dioxin-2-ylmethyl)piperidin-3-yl]methanol], for which the IC50 came out at 1.1 nM in assay [1] and 1150 nM in assay [2].
As to `C=CCC1(COC)CCCN(CC2COc3ccccc3O2)C1` (stereo not drawn) [Example 72, 3-Allyl-1-(2,3-dihydrobenzo[1,4]dioxin-2-ylmethyl)-3-methoxymethylpiperidine], the IC50 in assay [1] was 0.9 nM; in assay [2], 635 nM.
Consider `CC1(COCC(F)(F)F)CCCN(CC2COc3ccccc3O2)C1` (stereo not drawn) [Example 74, 1-(2,3-Dihydrobenzo[1,4]dioxin-2-ylmethyl)-3-methyl-3-(2,2,2-trifluoroethoxymethyl)-piperidine], for which the IC50 in assay [1] is 7.4 nM; in assay [2], 346 nM.
In the case of `C[C@]1(C(=O)O)CCCN(C[C@H]2COc3ccccc3O2)C1` [Example 86, Lithium (S)-1-[(S)-1-(2,3-dihydrobenzo[1,4]dioxin-2-yl)methyl]-3-methyl-piperidine-3-carboxylate], the IC50 in assay [1] worked out at 10.7 nM; in assay [2], 8420 nM.
For `C[C@]1(COCCO)CCCN(C[C@H]2COc3ccccc3O2)C1` [Example 89, 2-{(S)-1-[(S)-1-(2,3-Dihydrobenzo[1,4]dioxin-2-yl)methyl]-3-methylpiperidin-3-ylmethoxy}-ethanol D-tartrate], in that order: 0.6 nM and 2140 nM.
For `C[C@]1(COCC(=O)O)CCCN(C[C@H]2COc3ccccc3O2)C1` [Example 96, Sodium {(S)-1-[(S)-1-(2,3-dihydrobenzo[1,4]dioxin-2-yl)methyl]-3-methylpiperidin-3-yl-methoxy}acetate], the figures for the IC50 in assay [1] and in assay [2] were 4.6 nM and 5440 nM, respectively.
